Several values for one entry are separate records, joined by “and”; a condition that tells them apart may be missing. Equal values may be shown once.
Experiments:
ALDH1A1 = molecular target: T1, ALDH1A1 (Homo sapiens, UniProt P00352); assay: LC-HRMS analysis of isoenzyme activity in presence of probe; assay type: biochemical; conditions: ALDH1A1, 1 h
T1 construct: E. coli BL21 (DE3) were transformed with the full-length expression vector of each isoform; His-tag; made in house; host or cells: E. coli BL21 (DE3)
T1 sequence (P00352 1-501): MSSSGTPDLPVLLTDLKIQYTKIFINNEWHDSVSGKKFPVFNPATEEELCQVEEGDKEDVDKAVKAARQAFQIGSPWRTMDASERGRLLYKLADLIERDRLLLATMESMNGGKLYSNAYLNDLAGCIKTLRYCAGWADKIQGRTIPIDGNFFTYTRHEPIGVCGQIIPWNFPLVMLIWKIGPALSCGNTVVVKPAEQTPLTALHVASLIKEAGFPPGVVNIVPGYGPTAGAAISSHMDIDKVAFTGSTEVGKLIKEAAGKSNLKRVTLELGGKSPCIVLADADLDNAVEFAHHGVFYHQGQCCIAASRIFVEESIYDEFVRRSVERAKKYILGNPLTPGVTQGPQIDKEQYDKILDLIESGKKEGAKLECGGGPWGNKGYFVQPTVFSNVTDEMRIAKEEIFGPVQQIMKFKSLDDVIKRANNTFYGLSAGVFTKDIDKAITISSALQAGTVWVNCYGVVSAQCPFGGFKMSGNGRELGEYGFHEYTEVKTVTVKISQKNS
Protocol: (§1) These analyses were carried out by using UPLC-HRMS procedure with Vanquish UPLC system coupled to a Thermo Scientific Q-Exactive Plus, operating in negative electrospray ionization mode. The chromatographic separation was carried out using a Phenomenex Synergi 4 µ Polar-RP 80 A (150 × 2 mm) equipped with a Phenomenex Polar-RP (4 mm × 2 mm) security guard column. The mobile phase consisted of A: acetonitrile 0.1% formic acid and B: 0.1% formic acid. We used a linear elution gradient, starting from 80% of A to 5% A in 3 min, 3 min at 5% A, an equilibration of 4 min for a total run time of 10.00 min, at 300 µl/min flow rate. The autosampler temperature was set at 15 °C, the injection volume was 5 µl and column was maintained at 40 °C. The heated electrospray ionization source was used, with a spray voltage of […], with a capillary temperature of 300 °C, a heater temperature of 350 °C, a sheat gas flow of 45 arbitrary units (AU), an auxiliary gas flow of 10 AU and a sweep gas flow of 0 AU. During the Parallel Reaction Monitoring acquisition in negative ion mode, the instrument operated at 17,500 resolution in presence of the inclusion list (m/z = 596.20384 and m/z = 612.19875 for Probe 10 and Probe 10-COOH respectively; m/z = 534.18819 and m/z = 506.156888 for Probe 11 and Probe 11-COOH respectively) with an automatic gain control target of 2 × 10^5 charges and a maximum injection time of 100 ms. Before injecting the samples, the blanks in the list were analyzed and every biological sample was analyzed in duplicate. The biological samples analyzed were as follow: (1) Enzymatic assay Buffer; (2) Enzymatic assay Buffer + NAD^+; (3) Enzymatic assay Buffer + Probe 10 or Probe 11; (4) Enzymatic assay Buffer + ALDH1A1; (5) Enzymatic assay Buffer + ALDH1A2; (6) Enzymatic assay Buffer + ALDH1A3; (7) Enzymatic assay Buffer + ALDH1A1 + Probe 10 or Probe 11; (8) Enzymatic assay Buffer + ALDH1A2 + Probe 10 or Probe 11; (9) Enzymatic assay Buffer + ALDH1A3 + Probe 10 or Probe 11. All samples were diluted 1:1 with ACN, then 1:100 in ACN-Water 1:1 prior the LC-HRMS analysis.

ALDH1A2 = molecular target: T2, ALDH1A2 (Homo sapiens, UniProt O94788); assay: as above; assay type: biochemical; conditions: ALDH1A2, 1 h
T2 construct: E. coli BL21 (DE3) were transformed with the full-length expression vector of each isoform; His-tag; made in house; host or cells: E. coli BL21 (DE3)
T2 sequence (O94788 1-518): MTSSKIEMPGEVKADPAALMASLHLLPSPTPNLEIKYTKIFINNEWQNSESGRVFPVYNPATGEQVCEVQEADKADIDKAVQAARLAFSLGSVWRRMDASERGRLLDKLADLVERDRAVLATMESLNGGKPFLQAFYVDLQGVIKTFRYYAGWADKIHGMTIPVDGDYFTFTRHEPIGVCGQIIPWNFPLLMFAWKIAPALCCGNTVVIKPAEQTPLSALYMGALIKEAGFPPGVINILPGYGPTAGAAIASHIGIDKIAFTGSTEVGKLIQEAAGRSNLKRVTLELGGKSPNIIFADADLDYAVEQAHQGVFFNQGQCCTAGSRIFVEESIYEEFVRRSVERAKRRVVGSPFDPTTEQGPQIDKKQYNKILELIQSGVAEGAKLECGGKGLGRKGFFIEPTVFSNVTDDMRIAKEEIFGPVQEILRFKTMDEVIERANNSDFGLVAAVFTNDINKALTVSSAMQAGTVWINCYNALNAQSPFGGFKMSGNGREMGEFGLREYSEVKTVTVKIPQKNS
Protocol: as §1

[1] = LC-HRMS analysis, enzymatic assay buffer + probe without enzyme; conditions: 1 h
Protocol: These analyses were carried out by using UPLC-HRMS procedure with Vanquish UPLC system coupled to a Thermo Scientific Q-Exactive Plus, operating in negative electrospray ionization mode. The chromatographic separation was carried out using a Phenomenex Synergi 4 µ Polar-RP 80 A (150 × 2 mm) equipped with a Phenomenex Polar-RP (4 mm × 2 mm) security guard column. The mobile phase consisted of A: acetonitrile 0.1% formic acid and B: 0.1% formic acid. We used a linear elution gradient, starting from 80% of A to 5% A in 3 min, 3 min at 5% A, an equilibration of 4 min for a total run time of 10.00 min, at 300 µl/min flow rate. The autosampler temperature was set at 15 °C, the injection volume was 5 µl and column was maintained at 40 °C. […] Before injecting the samples, the blanks in the list were analyzed and every biological sample was analyzed in duplicate. The biological samples analyzed were as follow: (1) Enzymatic assay Buffer; (2) Enzymatic assay Buffer + NAD^+; (3) Enzymatic assay Buffer + Probe 10 or Probe 11; (4) Enzymatic assay Buffer + ALDH1A1; (5) Enzymatic assay Buffer + ALDH1A2; (6) Enzymatic assay Buffer + ALDH1A3; (7) Enzymatic assay Buffer + ALDH1A1 + Probe 10 or Probe 11; (8) Enzymatic assay Buffer + ALDH1A2 + Probe 10 or Probe 11; (9) Enzymatic assay Buffer + ALDH1A3 + Probe 10 or Probe 11. […]

[2] = substrate: COc1cc(/C=C/C(O)=C/C(=O)/C=C/c2ccc(OCc3cn(CCOc4ccc(C=O)cc4)nn3)c(OC)c2)ccc1O; assay: KM evaluation, probe as substrate (NADH absorbance 340 nm); assay type: biochemical, human; conditions: other: probe as substrate; pH 8.0; 25.0 °C
Protocol: The catalytic activity of the ALDH1As isoenzymes in complex with probe 10 was tested on a Tecan Sunrise 96 Multiplate Reader with Greiner Bio-One 96-UV-Transparent Microplates. […] Each reaction mix was preincubated for 10 min at 25 °C before the analysis. The catalytic activity was measured by monitoring the absorbance at 340 nm (εNADH = 6220 M^−1 cm^−1) for 12 h at 25 °C and the inhibitory parameters were calculated by processing the raw data on GraphPad.

**Q.** With `COc1cc(/C=C/C(O)=C/C(=O)/C=C/c2ccc(OCc3cn(CCOc4ccc(C(=O)O)cc4)nn3)c(OC)c2)ccc1O` [Probe 10-COOH] as the molecule, how does the “AREA TIC of Probe 10-COOH formed from Probe 10” value (from here on “AREA TIC of Probe 10-COOH formed”) (ALDH1A1) read?
**A.** The value was 26353656 and 30637066 and 18030552 and 17027138.

**Q.** And the “AREA TIC of Probe 10-COOH formed” value (ALDH1A2)?
**A.** Its value is 18647884 and 19590595 and 21767211 and 22597746.

**Q.** What about the “AREA TIC of Probe 10-COOH formed” value [1] of the same molecule?
**A.** The value was 0.

B1: ALDH1A2 (Homo sapiens) (protein)
chain: MTSSKIEMPGEVKADPAALMASLHLLPSPTPNLEIKYTKIFINNEWQNSESGRVFPVYNPATGEQVCEVQEADKADIDKAVQAARLAFSLGSVWRRMDASERGRLLDKLADLVERDRAVLATMESLNGGKPFLQAFYVDLQGVIKTFRYYAGWADKIHGMTIPVDGDYFTFTRHEPIGVCGQIIPWNFPLLMFAWKIAPALCCGNTVVIKPAEQTPLSALYMGALIKEAGFPPGVINILPGYGPTAGAAIASHIGIDKIAFTGSTEVGKLIQEAAGRSNLKRVTLELGGKSPNIIFADADLDYAVEQAHQGVFFNQGQCCTAGSRIFVEESIYEEFVRRSVERAKRRVVGSPFDPTTEQGPQIDKKQYNKILELIQSGVAEGAKLECGGKGLGRKGFFIEPTVFSNVTDDMRIAKEEIFGPVQEILRFKTMDEVIERANNSDFGLVAAVFTNDINKALTVSSAMQAGTVWINCYNALNAQSPFGGFKMSGNGREMGEFGLREYSEVKTVTVKIPQKNS
notes: E. coli BL21 (DE3) were transformed with the full-length expression vector of each isoform; His-tag; made in house; host or cells: E. coli BL21 (DE3)
**Q.** For B1, which Km [2] is on record?
**A.** The Km was 220.0 µM.

B2: ALDH1A1 (Homo sapiens) (protein)
chain: MSSSGTPDLPVLLTDLKIQYTKIFINNEWHDSVSGKKFPVFNPATEEELCQVEEGDKEDVDKAVKAARQAFQIGSPWRTMDASERGRLLYKLADLIERDRLLLATMESMNGGKLYSNAYLNDLAGCIKTLRYCAGWADKIQGRTIPIDGNFFTYTRHEPIGVCGQIIPWNFPLVMLIWKIGPALSCGNTVVVKPAEQTPLTALHVASLIKEAGFPPGVVNIVPGYGPTAGAAISSHMDIDKVAFTGSTEVGKLIKEAAGKSNLKRVTLELGGKSPCIVLADADLDNAVEFAHHGVFYHQGQCCIAASRIFVEESIYDEFVRRSVERAKKYILGNPLTPGVTQGPQIDKEQYDKILDLIESGKKEGAKLECGGGPWGNKGYFVQPTVFSNVTDEMRIAKEEIFGPVQQIMKFKSLDDVIKRANNTFYGLSAGVFTKDIDKAITISSALQAGTVWVNCYGVVSAQCPFGGFKMSGNGRELGEYGFHEYTEVKTVTVKISQKNS
notes: as for B1
**Q.** Which Km [2] does the source give for B2 here?
**A.** The Km was 255.2 µM.

From article PMC9437101, “Curcumin-based-fluorescent probes targeting ALDH1A3 as a promising tool for glioblastoma precision surgery and early diagnosis” (Communications Biology, 2022)
